Data published in patent publication US20240165243A1, “EGFR DEGRADERS AND METHODS OF USE” (BeiGene Switzerland GmbH, priority 2021, published 2024).

Tested on: EGFR (Del19/T790M/C797S)
Test: Cell degradation HTRF assay, H1975-clone #28 cells
Type: cell-based
Details: H1975-clone #28 (Del19/T790M/C797S) cells, 16 h treatment; for DC50: HTRF, read-out: H1975-clone#28 DTC DC50; for H1975-clone#28 DTC Dmax (%): maximum percentage of degradation
Description: Cell Degradation of Example 124-189
H1975-#28 and H1975-#25 cells are treated with compounds diluted in 0.2% DMSO cell culture medium on day 2, incubate for 16 h, 37° C., 5% CO2. the final concentration of compounds in all assay is start with 10 uM, 5-fold dilution, total 8 doses were included.
After 16 h treatment, add HTRF lysis buffer to each well; seal the plate and incubate 1 hour at room temperature on a plate shaker; Once the cells are lysed, 16 μL of cell lysate are transferred to a PE 384-well HTRF detection plate; 4 μL of pre-mixed HTRF antibodies are added to each well; Cover the plate with a plate sealer, spin 1000 rpm for 1 min, Incubate overnight at room temperature; Read on BMG PheraStar with HTRF protocol (337 nm-665 nm-620 nm).
The inhibition (degradation) percentage of the compound was calculated by the following equation:
Inhibition percentage of Compound=100−100×(Signal−low control)/(High control−low control), wherein signal=each test compound group.
High control=Cell group with added DMSO and without compound, indicating microplate readings without EGFR degradation;
Dmax is the maximum percentage of inhibition (degradation).
The IC50 (DC50) value of a compound can be obtained by fitting the following equation
Y=Bottom+(TOP−Bottom)/(1+((IC50/X)^hillslope))
Wherein, X and Y are known values, and IC50, Hillslope, Top and Bottom are the parameters obtained by fitting with software. Y is the inhibition percentage (calculated from the equation), X is the concentration of the compound; IC50 is the concentration of the compound when the 50% inhibition is reached. The smaller the IC50 value is, the stronger the inhibitory ability of the compound is. Vice versa, the higher the IC50 value is, the weaker the ability the inhibitory ability of the compound is; Hillslope represents the slope of the fitted curve, generally around 1*; Bottom represents the minimum value of the curve obtained by data fitting, which is generally 0%±20%; Top represents the maximum value of the curve obtained by data fitting, which is generally 100%±20%. The experimental data were fitted by calculating and analyzing with Dotmatics data analysis software. When Dmax<50%, DC50 will be automatically assigned as larger than […].

DC50 | Structure (SMILES) | H1975-clone#28 DTC Dmax (%)
2.1 nM | CCc1cc(Nc2ncc(Br)c(Nc3cnc4ccccc4c3P(C)(C)=O)n2)c(OC)cc1N1CCC(N2CCN(CCc3cccc4c3C(C)(C)C(=O)N4C3CCC(=O)NC3=O)CC2)CC1 (stereo not shown) [Example 164, 3-(4-(2-(4-(1-(4-((5-bromo-4-((4-(dimethylphosphoryl)quinolin-3-yl)amino)pyrimidin-2-yl)amino)-2-ethyl-5-methoxyphenyl)piperidin-4-yl)piperazin-1-yl)ethyl)-3,3-dimethyl-2-oxoindolin-1-yl)piperidine-2,6-dione] | 81%
3 nM | CCOc1cc(N2CCC(N3CCN(CCc4cccc5c4C(C)(C)C(=O)N5C4CCC(=O)NC4=O)CC3)CC2)c(CC)cc1Nc1ncc(Br)c(Nc2cnc3ccccc3c2P(C)(C)=O)n1 (stereo not shown) [Example 138, 3-(4-(2-(4-(1-(4-((5-bromo-4-((4-(dimethylphosphoryl)quinolin-3-yl)amino)pyrimidin-2-yl)amino)-5-ethoxy-2-ethylphenyl)piperidin-4-yl)piperazin-1-yl)ethyl)-3,3-dimethyl-2-oxoindolin-1-yl)piperidine-2,6-dione] | 83%
1.5 nM | CCOc1cc(N2CCC(N3CCN(CCc4ccc5c(c4)oc(=O)n5C4CCC(=O)NC4=O)CC3)CC2)c(CC)cc1Nc1ncc(Br)c(Nc2cnc3ccccc3c2P(C)(C)=O)n1 (stereo not shown) [Example 139, 3-(6-(2-(4-(1-(4-((5-bromo-4-((4-(dimethylphosphoryl)quinolin-3-yl)amino)pyrimidin-2-yl)amino)-5-ethoxy-2-ethylphenyl)piperidin-4-yl)piperazin-1-yl)ethyl)-2-oxobenzo[d]oxazol-3(2H)-yl)piperidine-2,6-dione] | 75%
1.3 nM | CCc1cc(Nc2ncc(Br)c(Nc3cnc4ccccc4c3P(C)(C)=O)n2)c(OC)cc1N1CCC(N2CCN(CCc3ccc(F)c4c3oc(=O)n4[C@H]3CCC(=O)NC3=O)CC2)CC1 [Example 126, (S)-3-(7-(2-(4-(1-(4-((5-bromo-4-((4-(dimethylphosphoryl)quinolin-3-yl)amino)pyrimidin-2-yl)amino)-2-ethyl-5-methoxyphenyl)piperidin-4-yl)piperazin-1-yl)ethyl)-4-fluoro-2-oxobenzo[d]oxazol-3(2H)-yl)piperidine-2,6-dione] | 84%
0.9 nM | CCc1cc(Nc2ncc(Br)c(Nc3cnc4ccccc4c3P(C)(C)=O)n2)c(OC)cc1N1CCC(N2CCN(CCc3ccc4c(oc(=O)n4C4CCC(=O)NC4=O)c3F)CC2)CC1 (stereo not shown) [Example 142, 3-(6-(2-(4-(1-(4-((5-bromo-4-((4-(dimethylphosphoryl)quinolin-3-yl)amino)pyrimidin-2-yl)amino)-2-ethyl-5-methoxyphenyl)piperidin-4-yl)piperazin-1-yl)ethyl)-7-fluoro-2-oxobenzo[d]oxazol-3(2H)-yl)piperidine-2,6-dione] | 81%
1.1 nM | CCc1cc(Nc2ncc(Br)c(Nc3cnc4ccccc4c3P(C)(C)=O)n2)c(OC)cc1N1CCC(N2CCN(CCc3cccc4c3n(CC)c(=O)n4C3CCC(=O)NC3=O)CC2)CC1 (stereo not shown) [Example 163, 3-(4-(2-(4-(1-(4-((5-bromo-4-((4-(dimethylphosphoryl)quinolin-3-yl)amino)pyrimidin-2-yl)amino)-2-ethyl-5-methoxyphenyl)piperidin-4-yl)piperazin-1-yl)ethyl)-3-ethyl-2-oxo-2,3-dihydro-1H-benzo[d]imidazol-1-yl)piperidine-2,6-dione] | 86%
0.9 nM | CCc1cc(Nc2ncc(Br)c(Nc3cnc4ccccc4c3P(C)(C)=O)n2)c(OC)cc1N1CCC(N2CCN(CCc3cccc4c3n(CC)c(=O)n4C3CCC(=O)NC3=O)CC2)CC1 (stereo not shown) [Example 135, 3-(4-(2-(4-(1-(4-((5-bromo-4-((4-(dimethylphosphoryl)quinolin-3-yl)amino)pyrimidin-2-yl)amino)-2-ethyl-5-methoxyphenyl)piperidin-4-yl)piperazin-1-yl)ethyl)-3-ethyl-2-oxo-2,3-dihydro-1H-benzo[d]imidazol-1-yl)piperidine-2,6-dione] | 83%

Continued, compound first:

Structure (SMILES) | DC50 | H1975-clone#28 DTC Dmax (%)
CCOc1cc(N2CCC(N3CCN(CCc4ccc5c(c4)oc(=O)n5C4CCC(=O)NC4=O)CC3)CC2)c(CC)cc1Nc1ncc(Br)c(Nc2cnc3cc(F)ccc3c2P(C)(C)=O)n1 (stereo not shown) [Example 133, 3-(6-(2-(4-(1-(4-((5-bromo-4-((4-(dimethylphosphoryl)-7-fluoroquinolin-3-yl)amino)pyrimidin-2-yl)amino)-5-ethoxy-2-ethylphenyl)piperidin-4-yl)piperazin-1-yl)ethyl)-2-oxobenzo[d]oxazol-3(2H)-yl)piperidine-2,6-dione] | 3 nM | 71%
CCc1cc(Nc2ncc(Br)c(Nc3cnc4ccccc4c3P(C)(C)=O)n2)c(OC)cc1N1CCC(N2CCN(CCc3ccc4c(c3)C(C)(C)C(=O)N4C3CCC(=O)NC3=O)CC2)CC1 (stereo not shown) [Example 175, 3-(5-(2-(4-(1-(4-((5-bromo-4-((4-(dimethylphosphoryl)quinolin-3-yl)amino)pyrimidin-2-yl)amino)-2-ethyl-5-methoxyphenyl)piperidin-4-yl)piperazin-1-yl)ethyl)-3,3-dimethyl-2-oxoindolin-1-yl)piperidine-2,6-dione] | 5.5 nM | 47%
CCc1cc(Nc2ncc(Br)c(Nc3cnc4cc(F)ccc4c3P(C)(C)=O)n2)c(OC)cc1N1CCC(N2CCN(CCc3ccc4c(c3)oc(=O)n4C3CCC(=O)NC3=O)CC2)CC1 (stereo not shown) [Example 153, 3-(6-(2-(4-(1-(4-((5-bromo-4-((4-(dimethylphosphoryl)-7-fluoroquinolin-3-yl)amino)pyrimidin-2-yl)amino)-2-ethyl-5-methoxyphenyl)piperidin-4-yl)piperazin-1-yl)ethyl)-2-oxobenzo[d]oxazol-3(2H)-yl)piperidine-2,6-dione] | 0.8 nM | 77%
CCc1cc(Nc2ncc(Br)c(Nc3cnc4c(F)cccc4c3P(C)(C)=O)n2)c(OC)cc1N1CCC(N2CCN(C(=O)C3CCN(c4ccc5c(c4)C(C)(C)C(=O)N5C4CCC(=O)NC4=O)CC3)CC2)CC1 (stereo not shown) [Example 182, 3-(5-(4-(4-(1-(4-((5-bromo-4-((4-(dimethylphosphoryl)-8-fluoroquinolin-3-yl)amino)pyrimidin-2-yl)amino)-2-ethyl-5-methoxyphenyl)piperidin-4-yl)piperazine-1-carbonyl)piperidin-1-yl)-3,3-dimethyl-2-oxoindolin-1-yl)piperidine-2,6-dione] | 0.8 nM | 56%
COc1cc(N2CCC(N3CCN(C(=O)C4CN(c5cccc6c5n(C)c(=O)n6C5CCC(=O)NC5=O)C4)CC3)CC2)c(C)cc1Nc1ncc(Br)c(Nc2cnc3ccccc3c2P(C)(C)=O)n1 (stereo not shown) [Example 179, 3-(4-(3-(4-(1-(4-((5-bromo-4-((4-(dimethylphosphoryl)quinolin-3-yl)amino)pyrimidin-2-yl)amino)-5-methoxy-2-methylphenyl)piperidin-4-yl)piperazine-1-carbonyl)azetidin-1-yl)-3-methyl-2-oxo-2,3-dihydro-1H-benzo[d]imidazol-1-yl)piperidine-2,6-dione] | 2.6 nM | 54%
CCc1cc(Nc2ncc(Br)c(Nc3cnc4ccc(F)cc4c3P(C)(C)=O)n2)c(OC)cc1N1CCC(N2CCN(CCc3cc(F)c(C4CCC(=O)NC4=O)c(F)c3)CC2)CC1 (stereo not shown) [Example 174, 3-(4-(2-(4-(1-(4-((5-bromo-4-((4-(dimethylphosphoryl)-6-fluoroquinolin-3-yl)amino)pyrimidin-2-yl)amino)-2-ethyl-5-methoxyphenyl)piperidin-4-yl)piperazin-1-yl)ethyl)-2,6-difluorophenyl)piperidine-2,6-dione] | 1.8 nM | 80%
CCc1cc(Nc2ncc(Br)c(Nc3cnc4ccc(C(F)(F)F)cc4c3P(C)(C)=O)n2)c(OC)cc1N1CCC(N2CCN(CCc3cc(F)c(C4CCC(=O)NC4=O)c(F)c3)CC2)CC1 (stereo not shown) [Example 171, 3-(4-(2-(4-(1-(4-((5-bromo-4-((4-(dimethylphosphoryl)-6-(trifluoromethyl)quinolin-3-yl)amino)pyrimidin-2-yl)amino)-2-ethyl-5-methoxyphenyl)piperidin-4-yl)piperazin-1-yl)ethyl)-2,6-difluorophenyl)piperidine-2,6-dione] | 4.3 nM | 79%
